The melting point is the temperature, or range, at which the solid turns liquid.

Where a name gives a salt, the structure may show the parent alone.

In turn, `Brc1cc(NC2=NCCN2)cc2[nH]cnc12` (as salt: fumarate) [Example 51, 7-Bromo-5-(2-imidazolin-2-ylamino)Benzimidazole] returned a melting point of 217 to 218 °C.

`Brc1c(NC2=NCCN2)ccc2c1ncn2C1CCCC1` (as salt: fumarate) [Example 26, 1-Cyclopentyl-4-bromo-5-(2-imidazolin-2-ylamino)Benzimidazole] showed a melting point of 180 to 182 °C.

In turn, `c1ccc(Cn2cnc3cc(NC4=NCCN4)ccc32)cc1` (as salt: fumarate) [Example 32, 1-Benzyl-5-(2-imidazolin-2-ylamino)Benzimidazole] had a melting point of 174 to 175 °C.

`Brc1c(NC2=NCCN2)ccc2ncn(C3CCCC3)c12` (as salt: fumarate) [Example 28, 3-Cyclopentyl-4-bromo-5-(2-imidazolin-2-ylamino)Benzimidazole] came in with a melting point of 208 to 210 °C.

The compound `c1ccc(-c2cc(NC3=NCCN3)cc3[nH]cnc23)cc1` (as salt: fumarate) [Example 57, 7-Phenyl-5-(2-imidazolin-2-ylamino)Benzimidazole] yielded a melting point of 149 to 151 °C.

The compound `CC(C)(C)c1nc2ccc(NC3=NCCN3)c(Br)c2[nH]1` (as salt: fumarate) [Example 45, 2-tert-Butyl-4-bromo-5-(2-imidazolin-2-ylamino)Benzimidazole] yielded a melting point of 176 to 178 °C.

The compound `Cc1nc2ccc(NC3=NCCN3)c(Br)c2[nH]1` (as salt: fumarate) [Example 42, 2-Methyl-4-bromo-5-(2-imidazolin-2-ylamino)Benzimidazole] displayed a melting point of 222 to 224 °C.

In turn, `Cc1cc(NC2=NCCN2)cc2[nH]cnc12` (as salt: fumarate) [Example 52, 7-Methyl-5-(2-imidazolin-2-ylamino)Benzimidazole] returned a melting point of 229 to 231 °C.

Regarding `c1cc2ncn(C3CCCC3)c2cc1NC1=NCCN1` (as salt: fumarate) [Example 27, 3-Cyclopentyl-5-(2-imidazolin-2-ylamino)Benzimidazole], the melting point lay in the range of 158 to 159 °C.

As for `c1nc2ccc(NC3=NCCN3)cc2[nH]1` (as salt: fumarate) [Example 1, 5-(2-Imidazolin-2-ylamino)Benzimidazole], the melting point is 196 to 198 °C.

`Brc1c(NC2=NCCN2)ccc2c1ncn2CC1CCCCC1` (as salt: fumarate) [Example 30, 1-Cyclohexylmethyl-4-bromo-5-(2-imidazolin-2-ylamino)Benzimidazole]: the melting point was 193 to 195 °C.

As to `CC(C)Cn1cnc2cc(NC3=NCCN3)ccc21` (as salt: fumarate) [Example 22, 1-Isobutyl-5-(2-imidazolin-2-ylamino)Benzimidazole], the melting point lay in the range of 185 to 186 °C.

`CCc1c(NC2=NCCN2)ccc2nc[nH]c12` (as salt: fumarate) [Example 6, 4-Ethyl-5-(2-imidazolin-2-ylamino)Benzimidazole] yielded a melting point of 238 to 239 °C.

On to `Cn1cnc2ccc(NC3=NCCN3)cc21` (as salt: fumarate) [Example 11, 3-Methyl-5-(2-imidazolin-2-ylamino)Benzimidazole], for which the melting point lay within 202 to 204 °C.

Take `CC(C)n1cnc2ccc(NC3=NCCN3)c(Br)c21` (as salt: fumarate) [Example 21, 3-Isopropyl-4-bromo-5-(2-imidazolin-2-ylamino)Benzimidazole]: the melting point was 210 to 212 °C.

Turning to `CC(C)n1cnc2cc(NC3=NCCN3)ccc21` (as salt: fumarate) [Example 17, 1-Isopropyl-5-(2-imidazolin-2-ylamino)Benzimidazole], the melting point lay within 185 to 186 °C.

Take `c1cc2c(cc1NC1=NCCN1)ncn2CC1CCCCC1` (as salt: fumarate) [Example 29, 1-Cyclohexylmethyl-5-(2-imidazolin-2-ylamino)Benzimidazole]: the melting point was 222 to 223 °C.

The compound `COc1cccc(Cn2cnc3c(Br)c(NC4=NCCN4)ccc32)c1` (as salt: fumarate) [Example 37, 1-(3-Methoxybenzyl)-4-bromo-5-(2-imidazolin-2-ylamino)Benzimidazole] showed a melting point of 177 to 178 °C.

In turn, `Brc1c(NC2=NCCN2)ccc2ncn(CC3CCCCC3)c12` (as salt: fumarate) [Example 31, 3-Cyclohexylmethyl-4-bromo-5-(2-imidazolin-2-ylamino)Benzimidazole] registered a melting point of 153 to 155 °C.

For the compound `c1cc2c(cc1NC1=NCCN1)ncn2C1CCCC1` (as salt: fumarate) [Example 25, 1-Cyclopentyl-5-(2-imidazolin-2-ylamino)Benzimidazole], the melting point lay in the range of 214 to 215 °C.

`CC(C)n1cnc2c(I)c(NC3=NCCN3)ccc21` (as salt: fumarate) [Example 19, 1-lsopropyl-4-Iodo-5-(2-imidazolin-2-ylamino)Benzimidazole]: the melting point was 208 to 209 °C.

In the case of `CCCn1cnc2ccc(NC3=NCCN3)cc21` (as salt: fumarate) [Example 15, 3-Propyl-5-(2-imidazolin-2-ylamino)Benzimidazole], the melting point lay within 198 to 199 °C.

Regarding `Brc1c(NC2=NCCN2)ccc2c1ncn2Cc1ccccc1` (as salt: fumarate) [Example 33, 1-Benzyl-4-bromo-5-(2-imidazolin-2-ylamino)Benzimidazole], the melting point is 197 to 198 °C.

Regarding `CCCn1cnc2cc(NC3=NCCN3)ccc21` (as salt: fumarate) [Example 13, 1-Propyl-5-(2-imidazolin-2-ylamino)Benzimidazole], the melting point lay within 206 to 207 °C.

`Cn1cnc2cc(NC3=NCCN3)ccc21` (as salt: fumarate) [Example 9, 1-Methyl-5-(2-imidazolin-2-ylamino)Benzimidazole] gave a melting point of 210 to 211 °C.

`CC(C)Cn1cnc2ccc(NC3=NCCN3)c(Br)c21` (as salt: fumarate) [Example 24, 3-Isobutyl-4-bromo-5-(2-imidazolin-2-ylamino)Benzimidazole] displayed a melting point of 187 to 188 °C.

Consider `CCCCc1c(NC2=NCCN2)ccc2nc[nH]c12` (as salt: fumarate) [Example 8, 4-n-Butyl-5-(2-imidazolin-2-ylamino)Benzimidazole], for which the melting point was found to be 96 °C.

For `CCCCc1cc(NC2=NCCN2)cc2[nH]cnc12` (as salt: fumarate) [Example 56, 7-Butyl-5-(2-imidazolin-2-ylamino)Benzimidazole], the melting point fell in the range of 115 to 117 °C.

For the compound `c1ccc(Cn2cnc3ccc(NC4=NCCN4)cc32)cc1` (as salt: fumarate) [Example 34, 3-Benzyl-5-(2-imidazolin-2-ylamino)Benzimidazole], the melting point is 174 to 175 °C.

Compound `OCCn1cnc2c(Br)c(NC3=NCCN3)ccc21` (as salt: fumarate) [Example 38, 1-(2-Hydroxyethyl)-4-bromo-5-(2-imidazolin-2-ylamino)Benzimidazole] yielded a melting point of 141 to 143 °C.

Regarding `Ic1c(NC2=NCCN2)ccc2nc[nH]c12` (as salt: fumarate) [Example 5, 4-Iodo-5-(2-imidazolin-2-ylamino)Benzimidazole], the melting point is 256 °C.

In turn, `Brc1c(NC2=NCCN2)ccc2nc(C(c3ccccc3)c3ccccc3)[nH]c12` (as salt: fumarate) [Example 48, 2-Diphenylmethyl-4-bromo-5-(2-imidazolin-2-ylamino)Benzimidazole] registered a melting point of 240 to 242 °C.

`CCc1cc(NC2=NCCN2)cc2[nH]cnc12` (as salt: fumarate) [Example 55, 7-Ethyl-5-(2-imidazolin-2-ylamino)Benzimidazole] showed a melting point of 203 to 205 °C.

Turning to `CC(C)n1cnc2c(Br)c(NC3=NCCN3)ccc21` (as salt: fumarate) [Example 18, 1-Isopropyl-4-bromo-5-(2-imidazolin-2-ylamino)Benzimidazole], the melting point is 187 to 188 °C.

Compound `CCc1nc2ccc(NC3=NCCN3)c(Br)c2[nH]1` (as salt: fumarate) [Example 43, 2-Ethyl-4-bromo-5-(2-imidazolin-2-ylamino)Benzimidazole] gave a melting point of 186 to 187 °C.

`Cc1cc2nc[nH]c2cc1NC1=NCCN1` (as salt: fumarate) [Example 49, 6-Methyl-5-(2-imidazolin-2-ylamino)Benzimidazole] gave a melting point of 219 to 221 °C.

For `Clc1cc(NC2=NCCN2)cc2[nH]cnc12` (as salt: fumarate) [Example 53, 7-Chloro-5-(2-imidazolin-2-ylamino)Benzimidazole], the melting point fell in the range of 220 to 221 °C.

Regarding `Brc1c(NC2=NCCN2)ccc2ncn(Cc3ccccc3)c12` (as salt: fumarate) [Example 35, 3-Benzyl-4-bromo-5-(2-imidazolin-2-ylamino)Benzimidazole], the melting point was in the range of 203 to 205 °C.

Take `Brc1c(NC2=NCCN2)ccc2nc[nH]c12` (as salt: fumarate) [Example 2, 4-Bromo-5-(2-imidazolin-2-ylamino)Benzimidazole]: the melting point was in the range of 199 to 202 °C.

For the origin of these results see patent US6403626B1, “Benzimidazole derivatives” (Synaptic Pharmaceutical Corporation, priority 1994, dated 2002).
